Each compound was assayed against human JAK1 (a.a. 837-1142) (assay: In vitro JAK kinase assay (HTRF, phosphorylation of a biotinylated peptide), JAK1). Conditions: measured at 1 mM ATP; JAK2 IC50 / JAK1 IC50.
Format: biochemical
In short: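 N-terminally His-tagged catalytic domains, baculovirus-expressed in insect cells and purified, were used as enzyme. Reactions ran 1 hr at room temperature and were stopped with a mix of 45 mM EDTA, 300 nM SA-APC and 6 nM Eu-Py20. The HTRF signal was read after 40 min of antibody binding.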

| SMILES | IC50 Ratio JAK2/JAK1 |
| --- | --- |
| COC(=O)c1ccccc1NC(=O)N1CCC(N2CC(CC#N)(n3cc(-c4ncnc5[nH]ccc45)cn3)C2)CC1 [Example 206, methyl 2-{[(4-{3-(cyanomethyl)-3-[4-(7H-pyrrolo[2,3-d]pyrimidin-4-yl)-1H-pyrazol-1-yl]azetidin-1-yl}piperidin-1-yl)carbonyl]amino}benzoate] | 1.6 |
| COC(=O)c1cc(F)ccc1NC(=O)N1CCC(N2CC(CC#N)(n3cc(-c4ncnc5[nH]ccc45)cn3)C2)CC1 [Example 207, methyl 2-{[(4-{3-(cyanomethyl)-3-[4-(7H-pyrrolo[2,3-d]pyrimidin-4-yl)-1H-pyrazol-1-yl]azetidin-1-yl}piperidin-1-yl)carbonyl]amino}-5-fluorobenzoate] | 2.5 |
| COC(=O)c1ccc(NC(=O)N2CCC(N3CC(CC#N)(n4cc(-c5ncnc6[nH]ccc56)cn4)C3)CC2)c(F)c1 [Example 208, methyl 4-{[(4-{3-(cyanomethyl)-3-[4-(7H-pyrrolo[2,3-d]pyrimidin-4-yl)-1H-pyrazol-1-yl]azetidin-1-yl}piperidin-1-yl)carbonyl]amino}-3-fluorobenzoate] | 4.8 |
| CN(C)c1ccc(CN2CCC(N3CC(CC#N)(n4cc(-c5ncnc6[nH]ccc56)cn4)C3)CC2)c(F)c1C#N [Example 209, 3-[(4-{3-(Cyanomethyl)-3-[4-(7H-pyrrolo[2,3-d]pyrimidin-4-yl)-1H-pyrazol-1-yl]azetidin-1-yl}piperidin-1-yl)methyl]-6-(dimethylamino)-2-fluorobenzonitrile] | 19.0 |
| N#CCC1(n2cc(-c3ncnc4[nH]ccc34)cn2)CN(C2CCN(Cc3cc(Cl)cc(Cl)c3)CC2)C1 [Example 210, {1-[1-(3,5-dichlorobenzyl)piperidin-4-yl]-3-[4-(7H-pyrrolo[2,3-d]pyrimidin-4-yl)-1H-pyrazol-1-yl]azetidin-3-yl}acetonitrile] | 4.3 |
| N#CCC1(n2cc(-c3ncnc4[nH]ccc34)cn2)CN(C2CCN(Cc3cc(C(F)(F)F)ccc3Cl)CC2)C1 [Example 211, {1-{1-[2-chloro-5-(trifluoromethyl)benzyl]piperidin-4-yl}-3-[4-(7H-pyrrolo[2,3-d]pyrimidin-4-yl)-1H-pyrazol-1-yl]azetidin-3-yl}acetonitrile] | 5.0 |
| N#CCC1(n2cc(-c3ncnc4[nH]ccc34)cn2)CN(C2CCN(Cc3cccc(C(F)(F)F)c3F)CC2)C1 [Example 212, {1-{1-[2-fluoro-3-(trifluoromethyl)benzyl]piperidin-4-yl}-3-[4-(7H-pyrrolo[2,3-d]pyrimidin-4-yl)-1H-pyrazol-1-yl]azetidin-3-yl}acetonitrile] | 7.8 |
| N#CCC1(n2cc(-c3ncnc4[nH]ccc34)cn2)CN(C2CCN(Cc3c(F)cccc3C(F)(F)F)CC2)C1 [Example 213, {1-{1-[2-fluoro-6-(trifluoromethyl)benzyl]piperidin-4-yl}-3-[4-(7H-pyrrolo[2,3-d]pyrimidin-4-yl)-1H-pyrazol-1-yl]azetidin-3-yl}acetonitrile] | 9.7 |
| N#CCC1(n2cc(-c3ncnc4[nH]ccc34)cn2)CN(C2CCN(Cc3cc4ccccc4nc3Cl)CC2)C1 [Example 214, {1-{1-[(2-chloroquinolin-3-yl)methyl]piperidin-4-yl}-3-[4-(7H-pyrrolo[2,3-d]pyrimidin-4-yl)-1H-pyrazol-1-yl]azetidin-3-yl}acetonitrile] | 2.5 |
| N#CCC1(n2cc(-c3ncnc4[nH]ccc34)cn2)CN(C2CCN(Cc3cc(F)cc(F)c3)CC2)C1 [Example 215, {1-[1-(3,5-difluorobenzyl)piperidin-4-yl]-3-[4-(7H-pyrrolo[2,3-d]pyrimidin-4-yl)-1H-pyrazol-1-yl]azetidin-3-yl}acetonitrile] | 5.7 |
| COc1cccc(F)c1CN1CCC(N2CC(CC#N)(n3cc(-c4ncnc5[nH]ccc45)cn3)C2)CC1 [Example 218, {1-[1-(2-fluoro-6-methoxybenzyl)piperidin-4-yl]-3-[4-(7H-pyrrolo[2,3-d]pyrimidin-4-yl)-1H-pyrazol-1-yl]azetidin-3-yl}acetonitrile] | 2.6 |
| N#CCC1(n2cc(-c3ncnc4[nH]ccc34)cn2)CN(C2CCN(Cc3cccc(Cl)c3Cl)CC2)C1 [Example 219, {1-[1-(2,3-dichlorobenzyl)piperidin-4-yl]-3-[4-(7H-pyrrolo[2,3-d]pyrimidin-4-yl)-1H-pyrazol-1-yl]azetidin-3-yl}acetonitrile] | 2.4 |
| N#CCC1(n2cc(-c3ncnc4[nH]ccc34)cn2)CN(C2CCN(Cc3ccc(F)c(C#N)c3)CC2)C1 [Example 220, 5-[(4-{3-(cyanomethyl)-3-[4-(7H-pyrrolo[2,3-d]pyrimidin-4-yl)-1H-pyrazol-1-yl]azetidin-1-yl}piperidin-1-yl)methyl]-2-fluorobenzonitrile] | 4.4 |

The remaining lines, values ahead:

| IC50 Ratio JAK2/JAK1 | SMILES |
| --- | --- |
| 1.3 | N#CCC1(n2cc(-c3ncnc4[nH]ccc34)cn2)CN(C2CCN(Cc3ccc(-c4conn4)cc3)CC2)C1 [Example 221, {1-{1-[4-(1,2,3-oxadiazol-4-yl)benzyl]piperidin-4-yl}-3-[4-(7H-pyrrolo[2,3-d]pyrimidin-4-yl)-1H-pyrazol-1-yl]azetidin-3-yl}acetonitrile] |
| 5.9 | N#CCC1(n2cc(-c3ncnc4[nH]ccc34)cn2)CN(C2CCN(Cc3cccc(C#N)c3)CC2)C1 [Example 223, 3-[(4-{3-(cyanomethyl)-3-[4-(7H-pyrrolo[2,3-d]pyrimidin-4-yl)-1H-pyrazol-1-yl]azetidin-1-yl}piperidin-1-yl)methyl]benzonitrile] |
| 2.4 | COc1nc(CN2CCC(N3CC(CC#N)(n4cc(-c5ncnc6[nH]ccc56)cn4)C3)CC2)ccc1C#N [Example 224, 6-[(4-{3-(cyanomethyl)-3-[4-(7H-pyrrolo[2,3-d]pyrimidin-4-yl)-1H-pyrazol-1-yl]azetidin-1-yl}piperidin-1-yl)methyl]-2-methoxynicotinonitrile] |
| 3.8 | N#CCC1(n2cc(-c3ncnc4[nH]ccc34)cn2)CN(C2CCN(Cc3cc(Br)nc(Br)c3)CC2)C1 [Example 225, {1-{1-[(2,6-dibromopyridin-4-yl)methyl]piperidin-4-yl}-3-[4-(7H-pyrrolo[2,3-d]pyrimidin-4-yl)-1H-pyrazol-1-yl]azetidin-3-yl}acetonitrile] |
| 1.9 | N#CCC1(n2cc(-c3ncnc4[nH]ccc34)cn2)CN(C2CCN(Cc3ccnc(Br)c3)CC2)C1 [Example 226, {1-{1-[(2-bromopyridin-4-yl)methyl]piperidin-4-yl}-3-[4-(7H-pyrrolo[2,3-d]pyrimidin-4-yl)-1H-pyrazol-1-yl]azetidin-3-yl}acetonitrile] |
| 7.9 | N#CCC1(n2cc(-c3ncnc4[nH]ccc34)cn2)CN(C2CCN(Cc3c(F)cccc3Cl)CC2)C1 [Example 227, {1-[1-(2-chloro-6-fluorobenzyl)piperidin-4-yl]-3-[4-(7H-pyrrolo[2,3-d]pyrimidin-4-yl)-1H-pyrazol-1-yl]azetidin-3-yl}acetonitrile] |
| 3.9 | N#CCC1(n2cc(-c3ncnc4[nH]ccc34)cn2)CN(C2CCN(Cc3c(F)ccc(Cl)c3F)CC2)C1 [Example 228, {1-[1-(3-chloro-2,6-difluorobenzyl)piperidin-4-yl]-3-[4-(7H-pyrrolo[2,3-d]pyrimidin-4-yl)-1H-pyrazol-1-yl]azetidin-3-yl}acetonitrile] |
| 6.4 | N#CCC1(n2cc(-c3ncnc4[nH]ccc34)cn2)CN(C2CCN(Cc3ccc(C#N)c(F)c3)CC2)C1 [Example 229, 4-[(4-{3-(cyanomethyl)-3-[4-(7H-pyrrolo[2,3-d]pyrimidin-4-yl)-1H-pyrazol-1-yl]azetidin-1-yl}piperidin-1-yl)methyl]-2-fluorobenzonitrile] |
| 9.3 | Cc1onc(-c2ccccc2)c1CN1CCC(N2CC(CC#N)(n3cc(-c4ncnc5[nH]ccc45)cn3)C2)CC1 [Example 230, {1-{1-[(5-methyl-3-phenylisoxazol-4-yl)methyl]piperidin-4-yl}-3-[4-(7H-pyrrolo[2,3-d]pyrimidin-4-yl)-1H-pyrazol-1-yl]azetidin-3-yl}acetonitrile] |
| 5.1 | N#CCC1(n2cc(-c3ncnc4[nH]ccc34)cn2)CN(C2CCN(Cc3ccnc(C(F)(F)F)c3F)CC2)C1 [Example 231, {1-(1-{[3-fluoro-2-(trifluoromethyl)pyridin-4-yl]methyl}piperidin-4-yl)-3-[4-(7H-pyrrolo[2,3-d]pyrimidin-4-yl)-1H-pyrazol-1-yl]azetidin-3-yl}acetonitrile] |
| 0.7 | N#CCC1(n2cc(-c3ncnc4[nH]ccc34)cn2)CN(C2CCN(Cc3cc4ccccc4o3)CC2)C1 [Example 232, {1-[1-(1-benzofuran-2-ylmethyl)piperidin-4-yl]-3-[4-(7H-pyrrolo[2,3-d]pyrimidin-4-yl)-1H-pyrazol-1-yl]azetidin-3-yl}acetonitrile] |
| 2.2 | N#CCC1(n2cc(-c3ncnc4[nH]ccc34)cn2)CN(C2CCN(Cc3cccc(Oc4ccccc4)c3)CC2)C1 [Example 233, {1-[1-(3-phenoxybenzyl)piperidin-4-yl]-3-[4-(7H-pyrrolo[2,3-d]pyrimidin-4-yl)-1H-pyrazol-1-yl]azetidin-3-yl}acetonitrile] |
| 4.2 | N#CCC1(n2cc(-c3ncnc4[nH]ccc34)cn2)CN(C2CCN(Cc3ccc4c(c3)OCCO4)CC2)C1 [Example 234, {1-[1-(2,3-dihydro-1,4-benzodioxin-6-ylmethyl)piperidin-4-yl]-3-[4-(7H-pyrrolo[2,3-d]pyrimidin-4-yl)-1H-pyrazol-1-yl]azetidin-3-yl}acetonitrile] |
| 5.5 | N#CCC1(n2cc(-c3ncnc4[nH]ccc34)cn2)CN(C2CCN(Cc3c(C(F)(F)F)ccc(Cl)c3F)CC2)C1 [Example 236, {1-{1-[3-chloro-2-fluoro-6-(trifluoromethyl)benzyl]piperidin-4-yl}-3-[4-(7H-pyrrolo[2,3-d]pyrimidin-4-yl)-1H-pyrazol-1-yl]azetidin-3-yl}acetonitrile] |
